Our source for the IC50 values is patent publication US12162888B2, “Carboxamides as ubiquitin-specific protease inhibitors” (Valo Early Discovery, Inc., priority 2018, dated 2024).

Structures are written as SMILES. Like-named read-outs stand apart in the source and are kept apart here.

This test concerns the target T1, USP28 (His-tagged USP28-FL-mammalian) (Homo sapiens, UniProt Q96RU2).
T1 construct: Expression of USP28 (1-1077)-TEV-6*His (pTT5 vector) was carried out in Expi293f cells; made in house; host or cells: Expi293F cells (pTT5 vector)
T1 sequence (Q96RU2 1-1077): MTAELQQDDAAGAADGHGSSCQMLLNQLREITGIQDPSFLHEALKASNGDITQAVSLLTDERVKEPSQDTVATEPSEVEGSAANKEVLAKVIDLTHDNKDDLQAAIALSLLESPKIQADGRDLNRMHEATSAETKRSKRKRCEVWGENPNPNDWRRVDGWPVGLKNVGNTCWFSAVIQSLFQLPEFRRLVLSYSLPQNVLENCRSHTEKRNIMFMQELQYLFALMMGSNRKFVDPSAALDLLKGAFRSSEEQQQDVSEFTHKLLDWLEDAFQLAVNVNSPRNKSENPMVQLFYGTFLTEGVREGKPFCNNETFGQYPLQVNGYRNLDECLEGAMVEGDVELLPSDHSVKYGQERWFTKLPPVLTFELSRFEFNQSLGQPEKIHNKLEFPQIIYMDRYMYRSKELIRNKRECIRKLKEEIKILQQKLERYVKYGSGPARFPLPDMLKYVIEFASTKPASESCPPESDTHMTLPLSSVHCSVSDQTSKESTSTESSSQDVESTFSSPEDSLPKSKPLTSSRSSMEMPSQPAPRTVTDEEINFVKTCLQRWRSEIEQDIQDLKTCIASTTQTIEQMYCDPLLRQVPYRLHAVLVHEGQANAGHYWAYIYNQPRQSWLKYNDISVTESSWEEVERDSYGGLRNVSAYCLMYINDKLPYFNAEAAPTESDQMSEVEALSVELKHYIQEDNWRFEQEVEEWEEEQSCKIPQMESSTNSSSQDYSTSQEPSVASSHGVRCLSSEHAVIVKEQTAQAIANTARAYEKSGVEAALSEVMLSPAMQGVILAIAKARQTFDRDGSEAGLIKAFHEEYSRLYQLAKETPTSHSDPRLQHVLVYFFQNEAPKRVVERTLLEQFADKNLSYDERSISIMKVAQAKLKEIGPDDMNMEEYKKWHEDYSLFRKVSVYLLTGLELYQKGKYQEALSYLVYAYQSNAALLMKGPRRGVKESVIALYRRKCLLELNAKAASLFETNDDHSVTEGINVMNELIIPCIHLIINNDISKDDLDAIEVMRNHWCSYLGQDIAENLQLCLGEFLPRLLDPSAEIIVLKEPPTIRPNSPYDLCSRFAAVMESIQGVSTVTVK
Put plainly: Ubiquitin-Rhodamine 110 Assay for USP28 Activity, Example A-1(a). It counts as biochemical. The protocol:
Example A-1(a): Biochemical Assay: Ubiquitin-Rhodamine 110 Assay for USP28 Activity
The assay was performed in a final volume of 9 μL in assay buffer containing 20 mM Tris-HCl (pH 8.0, (1M Tris-HCl, pH 8.0 solution; Corning 46-031-CM)), 3 mM BME (2-Mercaptoethanol; Sigma 63689-25ML-F), 0.03% BGG (0.22 μM filtered, Sigma, G7516-25G), and 0.01% Triton X-100 (Sigma, T9284-10L). Nanoliter quantities of 10-point, 3-fold serial dilution in DMSO was pre-dispensed into 1536 assay plates (Corning, #3724BC) for a final test concentration of 25 μM to 1.3 nM, top to lowest dose, respectively. Enzyme USP28, construct His-tagged USP28-FL-mammalian, (protein expression and purification procedure described below). Concentration and incubation times were optimized for the maximal signal-to-background while maintaining initial velocity conditions at a fixed substrate concentration. The final concentration of the enzyme in the assay was […]. Final substrate (Ub-Rh110; Ubiquitin-Rhodamine 110, UbiQ-126) concentration was 25 nM with [Ub-Rh110]<<Km. 3 μL of 2× enzyme was added to assay plates (pre-stamped with compound) preincubated with […] for 30 minutes and then 3 μL of 2× Ub-Rh110 was added to assay plates. Plates were incubated for 45 minutes at room temperature before addition of 3 μL of stop solution (final concentration of 10 mM citric acid (Sigma, 251275-500G)). Fluorescence was read on the Envision (Excitation at 485 nm and Emission at 535 nm; Perkin Elmer) or on the PheraSTAR (Excitation at 485 nm and Emission at 535 nm; BMG Labtech).
Procedure for the Protein expression and purification for construct His-tagged USP28-FL-mammalian
Expression of USP28 (1-1077)-TEV-6*His (pTT5 vector) was carried out in Expi293f cells (sequence derived from uniprot ID: Q96RU2-1). Cells were re-suspended in lysis buffer B 50 mM Bicine, pH 8.0, 20 mM NaCl, 5% glycerol, 0.1% CHAPS, 5 mM β-ME, 1 mM PMSF, 1 ug/ml Leupeptin, 1 ug/ml Pepstatin) and lysed by sonication. Insoluble material was removed by centrifugation and the supernatant was loaded onto a Ni-NTA column (GE Healthcare) equilibrated with Ni Buffer A (50 mM Bicine, pH 8.0, 20 mM NaCl, 5% glycerol, 0.1% CHAPS, 5 mM R-ME.) and washed with Ni Buffer A+20 mM imidazole until A280 reached baseline. The protein was eluted with Ni Buffer B (50 mM Bicine, pH 8.0, 20 mM NaCl, 5% glycerol, 0.1% CHAPS, 5 mM β-ME, 300 mM imidazole.). The protein was further purified using a Superdex™ 200 10/300 GL column (GE Healthcare) equilibrated with 50 mM Bicine, pH 8.0, 20 mM NaCl, 5% glycerol, 0.1% CHAPS, 5 mM β-ME. The protein was concentrated to 2.5 mg ml-1, flash-frozen in liquid N2 and stored at −80° C.
For assay formats Example A-1(a), A-1(b), and A-2, data were reported as percent inhibition compared with control wells based on the following equation: % inh=1−((FLU−AveLow)/(AveHigh−AveLow)) where FLU=measured Fluorescence, AveLow=average Fluorescence of no enzyme control (n=16), and AveHighh=average Fluorescence of DMSO control (n=16). IC50 values were determined by curve fitting of the standard 4 parameter logistic fitting algorithm included in the Activity Base software package: IDBS XE Designer Model 205. Data is fitted using the Levenburg Marquardt algorithm.

Where [1] appears, read: Ubiquitin-Rhodamine 110 biochemical assay, read-out: USP28 A-1(a) IC50 range.
[2] abbreviates: biochemical IC50 range, Ubiquitin-Rhodamine 110 assay, read-out: USP28 A-1(a).

As to `COC[C@@H]1CN(c2ccc3c(n2)CC[C@H](NC(=O)c2sc4nc(C)c(F)cc4c2N)C3)C[C@@H]1N` [Example 513, 3-amino-N-[(6S)-2-[(3R,4R)-3-amino-4-(methoxymethyl)pyrrolidin-1-yl]-5,6,7,8-tetrahydroquinolin-6-yl]-5-fluoro-6-methylthieno[2,3-b]pyridine-2-carboxamide], the IC50 under setting [1] lay in the range of 50 to 200 nM.

On to `CO[C@H]1CCCN(c2ccc3c(n2)CC[C@H](NC(=O)c2sc4nc(C)ccc4c2N)C3)C[C@@H]1N` [Example 494, 3-amino-N-[(6S)-2-[(3S,4S)-3-amino-4-methoxyazepan-1-yl]-5,6,7,8-tetrahydroquinolin-6-yl]-6-methylthieno[2,3-b]pyridine-2-carboxamide], for which, under setting [1], the IC50 lay within 1 to 50 nM.

For the molecule `CN[C@H]1CN(c2ccc3c(n2)CC[C@H](NC(=O)c2sc4nc(C)cnc4c2N)C3)C[C@@H]1OC` [Example 490, 7-amino-N-[(6S)-2-[(3S,4S)-3-methoxy-4-(methylamino)pyrrolidin-1-yl]-5,6,7,8-tetrahydroquinolin-6-yl]-3-methylthieno[2,3-b]pyrazine-6-carboxamide], the IC50 under setting [1] lay in the range of 50 to 200 nM.

Consider `COC[C@@H](C)O[C@@H]1CN(c2ccc3c(n2)CC[C@H](NC(=O)c2sc4nc(C)ccc4c2N)C3)C[C@H]1N` [Example 483, 3-amino-N-[(6S)-2-[(3R,4R)-3-amino-4-{[(2R)-1-methoxypropan-2-yl]oxy}pyrrolidin-1-yl]-5,6,7,8-tetrahydroquinolin-6-yl]-6-methylthieno[2,3-b]pyridine-2-carboxamide], for which the IC50 under setting [1] fell in the range of 50 to 200 nM.

In the case of `COCC(F)(F)[C@H]1CN(c2ccc3c(n2)CC[C@H](NC(=O)c2sc4nc(C)ccc4c2N)C3)C[C@@H]1N` [Example 480, 3-amino-N-[(6S)-2-[(3R,4S)-3-amino-4-(1,1-difluoro-2-methoxyethyl)pyrrolidin-1-yl]-5,6,7,8-tetrahydroquinolin-6-yl]-6-methylthieno[2,3-b]pyridine-2-carboxamide], the IC50 under setting [1] is 50 to 200 nM.

As for `Cc1ccc2c(N)c(C(=O)N[C@H]3CCc4nc(N5C[C@H](N)[C@@]6(C5)OCC[C@H]6C)ccc4C3)sc2n1` [Example 510, 3-amino-N-[(6S)-2-[(4R,5R,9S)-9-amino-4-methyl-1-oxa-7-azaspiro[4.4]nonan-7-yl]-5,6,7,8-tetrahydroquinolin-6-yl]-6-methylthieno[2,3-b]pyridine-2-carboxamide], the IC50 under setting [1] lay within 50 to 200 nM.

Turning to `Cc1ccc2c(N)c(C(=O)N[C@H]3COc4cc(N5C[C@@H](N)[C@]6(C5)OCC[C@H]6C)ccc4C3)sc2n1` (single isomer, unassigned) [Example 612-4], the IC50 under setting [2] was in the range of 1 to 50 nM.

For `Cc1ccc2c(N)c(C(=O)N[C@H]3CCc4nc(N5CC6CC(C5)N6)ccc4C3)sc2n1` [Example 23-10, 3-amino-N-[(6S)-2-{3,6-diazabicyclo[3.1.1]heptan-3-yl}-5,6,7,8-tetrahydroquinolin-6-yl]-6-methylthieno[2,3-b]pyridine-2-carboxamide], the IC50 (Ubiquitin-Rhodamine 110 assay, read-out: USP28 A-1(a) IC50 range) fell in the range of 50 to 200 nM.

On to `CCOc1ncc(C(=O)N[C@H]2COc3cc(N4CCNCC4)ccc3C2)c2[nH]ccc12` [Example 676, 4-ethoxy-N-[(3R)-7-(piperazin-1-yl)-3,4-dihydro-2H-1-benzopyran-3-yl]-1Hpyrrolo[3,2-c]pyridine-7-carboxamide], for which, under setting [2], the IC50 was 200 to 2000 nM.

For the molecule `Cc1ccc2c(N)c(C(=O)N[C@H]3CCc4nc(N5C[C@H](N)[C@@]6(C5)OCC[C@@H]6C)ccc4C3)sc2n1` [Example 509, 3-amino-N-[(6S)-2-[(4S,5R,9S)-9-amino-4-methyl-1-oxa-7-azaspiro[4.4]nonan-7-yl]-5,6,7,8-tetrahydroquinolin-6-yl]-6-methylthieno[2,3-b]pyridine-2-carboxamide], under setting [1], the IC50 lay in the range of 50 to 200 nM.

In the case of `Cc1ccc2c(N)c(C(=O)N[C@H]3CCc4nc(N5C[C@H](COC(F)(F)F)[C@H](N)C5)ccc4C3)sc2n1` [Example 485, 3-amino-N-[(6S)-2-[(3S,4S)-3-amino-4-[(trifluoromethoxy)methyl]pyrrolidin-1-yl]-5,6,7,8-tetrahydroquinolin-6-yl]-6-methylthieno[2,3-b]pyridine-2-carboxamide], the IC50 under setting [1] was in the range of 50 to 200 nM.

In the case of `Cc1ccc2c(N)c(C(=O)N[C@H]3COc4cc(N5C[C@H](COC(F)(F)F)[C@H](N)C5)ccc4C3)sc2n1` [Example 673, 3-amino-N-[(3R)-7-[(3S,4S)-3-amino-4-[(trifluoromethoxy)methyl]pyrrolidin-1-yl]-3,4-dihydro-2H-1-benzopyran-3-yl]-6-methylthieno[2,3-b]pyridine-2-carboxamide], under setting [2], the IC50 was in the range of 1 to 50 nM.

In the case of `CN[C@@H]1CN(c2ccc3c(c2)OC[C@H](NC(=O)c2sc4nc(C)ccc4c2N)C3)C[C@@H]1COC` [Example 680, 3-amino-N-[(3R)-7-[(3S,4S)-3-(methoxymethyl)-4-(methylamino)pyrrolidin-1-yl]-3,4-dihydro-2H-1-benzopyran-3-yl]-6-methylthieno[2,3-b]pyridine-2-carboxamide], under setting [2], the IC50 is 1 to 50 nM.

As to `CN[C@@H]1CN(c2cc(F)c3c(c2)OC[C@H](NC(=O)c2sc4nc(C)ncc4c2N)C3)C[C@H]1COC` [Example 695, 5-amino-N-[(3R)-5-fluoro-7-[(3R,4S)-3-(methoxymethyl)-4-(methylamino)pyrrolidin-1-yl]-3,4-dihydro-2H-1-benzopyran-3-yl]-2-methylthieno[2,3-d]pyrimidine-6-carboxamide], the IC50 under setting [2] was 200 to 2000 nM.

On to `Cc1ccc2c(N)c(C(=O)N[C@H]3CCc4nc(N5C[C@@H](N)[C@]6(C5)OCC[C@@H]6C)ccc4C3)sc2n1` [Example 511, 3-amino-N-[(6S)-2-[(4S,5S,9R)-9-amino-4-methyl-1-oxa-7-azaspiro[4.4]nonan-7-yl]-5,6,7,8-tetrahydroquinolin-6-yl]-6-methylthieno[2,3-b]pyridine-2-carboxamide], for which the IC50 under setting [1] was 200 to 2000 nM.
